Details: for viscosity / mass density: 101.33 kPa, Liquid; for viscosity: Concentric cylinders viscometry; for mass density: Vibrating tube method; for Normal melting temperature: Crystal, DTA; for Glass transition temperature: DSC

CCCCCCCC/C=C\CCCCCCCC(=O)[O-].CCCCCCCC[N+](CCCCCCCC)(CCCCCCCC)CCCCCCCC [tetraoctylammonium oleate]
Details	Glass transition temperature [°C]	Normal melting temperature [°C]	mass density [kg/m3]	viscosity [mPa·s]
–	-79.8	-29.5	–	–
293.15 K	–	–	878.4	1689.3
298.15 K	–	–	875.3	1153.4
303.15 K	–	–	872.3	804.8
308.15 K	–	–	869.2	575.4
313.15 K	–	–	866.1	420.8
318.15 K	–	–	863.1	314.4
323.15 K	–	–	860.1	239.4
328.15 K	–	–	857.1	185.4
333.15 K	–	–	854.1	146.2
338.15 K	–	–	851.1	117
343.15 K	–	–	848.2	94.9
348.15 K	–	–	845.2	77.9
353.15 K	–	–	842.2	64.1
358.15 K	–	–	839.2	53.5
363.15 K	–	–	836.1	44.3

CCCCC(CC)CCC(=O)[O-].CCCCCCCC[N+](C)(CCCCCCCC)CCCCCCCC [methyltrioctylammonium 4-ethyloctanoate]
Details	Glass transition temperature [°C]	mass density [kg/m3]	viscosity [mPa·s]
–	-76.6	–	–
293.15 K	–	893.1	5743.4
298.15 K	–	890.1	3733.4
303.15 K	–	887.1	2468.1
308.15 K	–	884	1672.3
313.15 K	–	881	1159.3
318.15 K	–	877.9	820.4
323.15 K	–	874.9	592.1
328.15 K	–	871.8	434.7
333.15 K	–	868.8	324.9
338.15 K	–	865.8	246.3
343.15 K	–	862.8	189.2
348.15 K	–	859.8	147.4
353.15 K	–	856.8	116.1
358.15 K	–	853.9	92.4
363.15 K	–	850.9	74.1

CCCCCCCC/C=C\CCCCCCCC(=O)[O-].CCCCCCCC[N+](C)(CCCCCCCC)CCCCCCCC [methyltrioctylammonium oleate]
Details	Glass transition temperature [°C]	Normal melting temperature [°C]	mass density [kg/m3]	viscosity [mPa·s]
–	-56.3	-5.9	–	–
293.15 K	–	–	890.5	2934
298.15 K	–	–	887.5	1971.4
303.15 K	–	–	884.5	1354.6
308.15 K	–	–	881.5	957.7
313.15 K	–	–	878.5	692.7
318.15 K	–	–	875.5	511.3
323.15 K	–	–	872.5	384.4
328.15 K	–	–	869.5	293.8
333.15 K	–	–	866.6	227.9
338.15 K	–	–	863.6	179.2
343.15 K	–	–	860.7	142.7
348.15 K	–	–	857.8	114.3
353.15 K	–	–	854.9	92.3
358.15 K	–	–	852	74.9
363.15 K	–	–	849.1	61.8

CCCCCCCC/C=C\CCCCCCCC(=O)[O-].CCCCCC[N+](CCCCCC)(CCCCCC)CCCCCC [tetrahexylammonium oleate]
Details	Glass transition temperature [°C]	mass density [kg/m3]	viscosity [mPa·s]
–	-83.2	–	–
293.15 K	–	889.9	2509.9
298.15 K	–	886.9	1623.7
303.15 K	–	883.9	1086.6
308.15 K	–	880.9	749
313.15 K	–	877.8	530.9
318.15 K	–	874.8	384.9
323.15 K	–	871.8	285.3
328.15 K	–	868.8	215.5
333.15 K	–	865.8	165.4
338.15 K	–	862.9	129.5
343.15 K	–	859.9	102.9
348.15 K	–	857	82.8
353.15 K	–	854	67.5
358.15 K	–	851	55.5
363.15 K	–	847.9	45.5
